From patent US12152022B2, “N-[5-(aminosulfonyl)-4-methyl-1,3-thiazol-2-yl]-N-methyl-2-[4-(2-pyridinyl)-phenyl]-acetamide free base hemihydrate, methods of manufacture and uses thereof” (AiCuris Anti-Infective Cures GmbH, priority 2016, dated 2024)
One block for each compound: values may come before it.

Legend:
herpes simplex virus = conditions: compared with N-[5-(amino-sulfonyl)-4-methyl-1,3-thiazol-2-yl]-N-methyl-2-[4-(2-pyridinyl)phenyl]acetamide; cited from earlier work
[1] = Hygroscopicity / DVS water sorption; format: physicochemical; conditions: for DVS: release and adsorption of water: 25° C., experiment time <600 min for Form C
Excerpt: FIG. 6A: weight vs. relative humidity, FIG. 6B: measurement over time.
(§1) The hemihydrate Form C was isolated on larger scale. The starting material for the screening (Form B) was a monohydrate. Additionally a potential dihydrate (form L) was identified. […] To extend the exposure to different relative humidity (RH) values small vials with solid/saturated solutions were loaded with an open pan of Form C on top and the sealed vials kept for 5 days (see the data below for different humidity levels).

[2] = Saturated solubility in individual excipients; format: physicochemical; conditions: mean, n=3
Excerpt: Comparative Solubility of Free Base and Free Base Hemihydrate in Individual Excipients Saturated solubility (% w/w) of two forms of pritelivir (batches BXR2KVE for the free base and M023862-CA15-033 for pritelivir hemihydrate) in PEG 400 and propylene glycol, mean (range, n=3) are shown in Table 11 below.

[3] = Exposure of Form C to different relative humidity values, check by XRPD; format: physicochemical; conditions: <5% to 100% RH, sealed vials, 5 days
Excerpt: as §1

[4] = pKa value by photometric titration; format: physicochemical
Experimental: (§2) The physical characterization of the free base hemihydrate referred to herein was performed using compendial methods as per European Pharmacopoeia (Ph. Eur.) and/or the U.S.
(§3) The identified forms were then further characterized by several methods: XRPD, Optical microscopy, ^1H-NMR, DSC, TGA, and DVS. The physical characterization of the free base hemihydrate referred to herein was performed using compendial methods as per European Pharmacopoeia (Ph. Eur.) and/or the U.S. Pharmacopeial Convention (USP).
(§4) General properties of N-[5-(aminosulfonyl)-4-methyl-1,3-thiazol-2-yl]-N-methyl-2-[4-(2-pyridinyl)-phenyl]-acetamide hemihydrate Table 9: […]

[5] = Octanol/water partition coefficient; format: physicochemical; conditions: 25° C.
Experimental: as §2, §3, §4

HSV-2 = conditions: once daily suppressive therapy; cited from earlier work

SMILES: C[C@H](Cn1cnc2c(N)ncnc21)OCP(=O)(O)O [Tenofovir]
IC50-values compared to pritelivir (herpes simplex virus): significantly higher

Saturated solubility in PEG 400 ([2]; PEG 400): 3.30 % w/w | Saturated solubility in PEG 400 (free base*) ([2]; PEG 400, column marked *, asterisk not explained): 7.87 % w/w | Saturated solubility in propylene glycol ([2]; Propylene glycol): 0.20 % w/w | Saturated solubility in propylene glycol (free base*) ([2]; Propylene glycol, column marked *, asterisk not explained): 2.84 % w/w
SMILES: Cc1nc(N(C)C(=O)Cc2ccc(-c3ccccn3)cc2)sc1S(N)(=O)=O [pritelivir free base, N-[5-(aminosulfonyl)-4-methyl-1,3-thiazol-2-yl]-N-methyl-2-[4-(2-pyridinyl)-phenyl]-acetamide]
DVS: release and adsorption of water ([1]; listed as Form B): release and adsorb water more rapidly than Form C

Hygroscopicity [1]: Not hygroscopic | DVS: release and adsorption of water ([1]; hemihydrate): almost no change | Solid form by XRPD after humidity exposure [3]: all samples confirmed to be Form C | Saturated solubility in PEG 400 ([2]; PEG 400, hemihydrate): 7.87 % w/w | Saturated solubility in propylene glycol ([2]; Propylene glycol, hemihydrate): 0.59 % w/w | pKa value (photometric titration) [4]: 4.6 | logP [5]: -0.0405
SMILES: Cc1nc(N(C)C(=O)Cc2ccc(-c3ccccn3)cc2)sc1S(N)(=O)=O [pritelivir hemihydrate, N-[5-(aminosulfonyl)-4-methyl-1,3-thiazol-2-yl]-N-methyl-2-[4-(2-pyridinyl)-phenyl]-acetamide free base hemihydrate]

SMILES: CC(C)[C@H](N)C(=O)OCCOCn1cnc2c(=O)[nH]c(N)nc21 [valacyclovir]
Risk of transmission of genital herpes (HSV-2): significantly reduces the risk of transmission
